Data: publication PMC10459838 (Veterinary Sciences, 2023)
Where two headings read alike, the source gives them in different places.

Tests used:
[1] = Cell viability assay (MTT, Cell Proliferation Kit I); format: cell-based, feline; settings: cat
Protocol: (§1) The Crandell-Reese feline kidney (CRFK) cells utilized in this study were purchased from American Type Culture Collection (ATCC, Manassas, VA, USA), and cultured in Eagle’s Minimum Essential Medium (EMEM) medium supplemented with 10% fetal bovine serum (FBS), 1% antibiotics (penicillin and streptomycin), and 1% non-essential amino acids. The reagents were obtained from ATCC. The CRFK cells were incubated at 37 °C with 5% CO2.
(§2) The cell viability of CRFK cells was measured using a Cell Proliferation Kit I (MTT) (Roche Applied Science, Indianapolis, IN, USA), following the manufacturer’s instructions. […] After incubation for 48 h, 10 μL of MTT solution (0.5 mg/mL in phosphate-buffered saline) was added to each well. The plate was incubated for 4 h at 37 °C to allow the formation of formazan crystals. Following incubation, 1% sodium dodecyl sulfate (100 μL) solution was added to dissolve the crystals.

CRFK cells [2] = test: as above; format: cell-based, feline
Protocol: as §1, §2

[3] = test system: FIPV serotype II strain (WSU-79-1146); test: Antiviral efficacy against FIPV replication in CRFK cells, viral load by qRT-PCR; format: cell-based, feline infectious peritonitis virus; settings: for Viral load (FIPV RNA copies) / FIPV viral copies with GS441524: GS441524 25 µM; for Viral load (FIPV RNA copies): inoculum […] 10^4 TCID50/mL; for Selectivity index (SI) = (mean CC50)/(mean EC50): against FIPV in CRFK cells
CRFK cells [4] = settings: 48 h
COVID-19 = test system: COVID-19; parameters: method as in PMID 34933447; settings: co-administered with ritonavir within 3 to 5 days of COVID-19 symptom onset; cited from earlier work
FIPV = test system: FIPV; parameters: method as in earlier work; settings: ref 39 (Jiao, Yan et al.); cited from earlier work
[5] = CRFK cells treated with drugs for 48 h, MTT assay (Figure 5), read-out: 50% cytotoxic concentration (CC50)
[6] = Alphacoronavirus 1, CRFK, 48 h, CRFK cells, FIPV […] 10^4 TCID50/mL, 48 h, qRT-PCR, read-out: 50% effective concentration (EC50) against FIPV replication
[7] = CRFK cells, FIPV […] 10^4 TCID50/mL, 48 h, qRT-PCR, read-out: 50% effective concentration (EC50) against FIPV replication
[8] = CRFK cells (Crandell-Reese feline kidney), CRFK cells treated with drugs for 48 h, MTT assay (Figure 5), read-out: 50% cytotoxic concentration (CC50)

SMILES: N#C[C@@]1(c2ccc3c(N)ncnn23)O[C@H](CO)[C@@H](O)[C@H]1O [GS441524, GS-441524]
- CC50 at 48 h [1, 5]: 260 µM
- CC50 (CRFK cells [2]; [5]): 260 µM
- Cytopathic effects (CPEs) in FIPV-infected cells ([3]; 0.5 µM, 10-fold dilutions): no CPEs observed in cells
- Reduction in FIPV copy number ([3]; 0.98 µM, two-fold dilutions, 48 hpi): 22.5%
- Lowest concentration with anti-FIPV efficacy compared to no-drug group ([3]; 10-fold dilutions, 48 hpi): 0.5 µM
- EC50 [3, 6]: 1.57 µM
- inhibition at 0.5 µM ([3]; Alphacoronavirus 1, CRFK, 0.5 µM, 10-fold dilutions, 48 hpi): 85%
- inhibition at […] ([3]; Alphacoronavirus 1, CRFK, 7.8 µM, two-fold dilutions, 48 hpi): 98.3%
- EC50 [3, 7]: 1.6 µM
- Viral load (FIPV RNA copies) ([3]; 0 hpi (applied at inoculation, remained), 24 h): 2.58 × 10^4 per ml
- Viral load (FIPV RNA copies) ([3]; 0 hpi, 48 h): 1.97 × 10^4 per ml
- Viral load (FIPV RNA copies) ([3]; 0 hpi, 72 h): 2.04 × 10^4 per ml
- Viral load (FIPV RNA copies) ([3]; +1 hpi (applied 1 h post inoculation), 24 h): 2.84 × 10^4 per ml
- Viral load (FIPV RNA copies) ([3]; +1 hpi, 48 h): 1.52 × 10^4 per ml
- Viral load (FIPV RNA copies) ([3]; +1 hpi, 72 h): 1.39 × 10^4 per ml
- FIPV viral copies with GS441524 ([3]; FIPV inoculum […] 10^2 TCID50/mL, 48 h): 4.60 × 10^1 per ml
- FIPV viral copies with GS441524 ([3]; FIPV inoculum […] 10^2 TCID50/mL, 72 h): 2.36 × 10^1 per ml
- FIPV viral copies with GS441524 ([3]; FIPV inoculum […] 10^3 TCID50/mL, 48 h): 3.48 × 10^2 per ml
- FIPV viral copies with GS441524 ([3]; FIPV inoculum […] 10^3 TCID50/mL, 72 h): 2.09 × 10^2 per ml
- FIPV viral copies with GS441524 ([3]; FIPV inoculum […] 10^4 TCID50/mL, 48 h): 2.76 × 10^3 per ml
- FIPV viral copies with GS441524 ([3]; FIPV inoculum […] 10^4 TCID50/mL, 72 h): 3.24 × 10^3 per ml
- Viral load (FIPV RNA copies) ([3]; −2 & +1 hpi (applied 2 h before, removed, applied again at 1 hpi), 24 h): 2.47 × 10^4 per ml
- Viral load (FIPV RNA copies) ([3]; −2 hpi (applied 2 h before inoculation, removed before inoculation), 24 h): 1.97 × 10^4 per ml
- Viral load (FIPV RNA copies) ([3]; −2 hpi, 48 h): 2.94 × 10^5 per ml
- Viral load (FIPV RNA copies) ([3]; −2 hpi, 72 h): 6.89 × 10^6 per ml
- Lowest concentration with antiviral efficacy ([3]; two-fold dilutions, 48 hpi): 0.98 µM

SMILES: CC(C)C(=O)OC[C@H]1O[C@@H](n2ccc(NO)nc2=O)[C@H](O)[C@@H]1O [Molnupiravir]
- CC50 at 48 h [1, 8]: 235 µM
- CC50 (CRFK cells [2]; [5]): 235 µM
- Concentration as high as which the drug could be used safely with minimal cytotoxicity (CRFK cells [2]; CRFK cells, 48 h, MTT staining): 63 µM
- EC50 [3, 6]: 8 µM
- EC50 [3, 7]: 8.04 µM
- Selectivity index (SI) = (mean CC50)/(mean EC50) [3]: 29.3
- Selectivity index (SI) = (mean CC50)/(mean EC50) ([3]; listed as molnupiravir): 29.27
- Highest concentration with essentially no cytotoxicity (CRFK cells [4]; CRFK cells, CellTox Green): 63 µM

SMILES: CC(C)(C)[C@H](NC(=O)C(F)(F)F)C(=O)N1C[C@H]2[C@@H]([C@H]1C(=O)N[C@H](C#N)C[C@@H]1CCNC1=O)C2(C)C [Nirmatrelvir]
- CC50 at 48 h [1, 5]: 279 µM
- Concentration as high as which the drug could be used safely with minimal cytotoxicity (CRFK cells [2]; CRFK cells, 48 h, MTT staining): 63 µM
- Reduction in hospitalizations and death (COVID-19): 89%
- Cytopathic effects (CPEs) in FIPV-infected cells ([3]; 5 µM, 10-fold dilutions): no CPEs in cells
- EC50 ([3]; Alphacoronavirus 1, CRFK, 48 h, read-out: 50% effective concentration (EC50) against FIPV replication, CRFK cells, FIPV […] 10^4 TCID50/mL, 48 h, qRT-PCR): 2.46 µM
- inhibition at 5 µM ([3]; Alphacoronavirus 1, CRFK, read-out: Inhibition of FIPV replication): 80%
- Selectivity index (SI) = (mean CC50)/(mean EC50) [3]: 113.7
- Selectivity index (SI) = (mean CC50)/(mean EC50) ([3]; listed as nirmatrelvir): 113.67
- EC50 ([3]; read-out: 50% effective concentration (EC50) against FIPV replication, CRFK cells, FIPV […] 10^4 TCID50/mL, 48 h, qRT-PCR): 2.5 µM
- EC50 (FIPV): 2.52 µM
- Highest concentration with essentially no cytotoxicity (CRFK cells [4]; CRFK cells, CellTox Green): 63 µM

SMILES: CC(C)c1nc(CN(C)C(=O)N[C@H](C(=O)N[C@@H](Cc2ccccc2)C[C@H](O)[C@H](Cc2ccccc2)NC(=O)OCc2cncs2)C(C)C)cs1 [Ritonavir]
- Concentration as high as which the drug could be used safely with minimal cytotoxicity (CRFK cells [2]; cat, 48 h): 16 µM
- Cytopathic effects (CPEs) in FIPV-infected cells ([3]; 5 µM, 10-fold dilutions): induced CPEs
- Cytopathic effects (CPEs) in FIPV-infected cells ([3]; 50 µM, 10-fold dilutions): induced CPEs
- EC50 [3, 6]: 17.6 µM
- Highest concentration with essentially no cytotoxicity (CRFK cells [4]; cat): 16 µM
- Lowest concentration at which cytotoxicity was observed (CRFK cells [4]; cat): 31 µM

SMILES: N#CC[C@H](C1CCCC1)n1cc(-c2ncnc3[nH]ccc23)cn1 [Ruxolitinib]
- CC50 at 48 h ([1]; 50% cytotoxic concentration (CC50)): 338 µM
- CC50 (CRFK cells [2]; cat, 48 h): 338 µM
- EC50 ([3]; Alphacoronavirus 1, CRFK, 48 h, read-out: 50% effective concentration (EC50) against FIPV replication): 43.6 µM
- Lowest concentration at which cytotoxicity was observed (CRFK cells [4]; CRFK cells, cytotoxicity assay): 250 µM

SMILES: C/C(O)=C(\C#N)C(=O)Nc1ccc(C(F)(F)F)cc1 [Teriflunomide]
- CC50 at 48 h [1, 8]: 134 µM
- Concentration as high as which the drug could be used safely with minimal cytotoxicity (CRFK cells [2]; CRFK cells, 48 h, MTT staining): 62.5 µM
- EC50 [3, 6]: 49.6 µM
- Highest concentration with essentially no cytotoxicity (CRFK cells [4]; cat): 63 µM
